Experimental findings from PubChem BioAssay (NCI) are described below.

Some test systems named below: K-562 leukemia; A498 renal; MDA-MB-435; SNB-19 CNS; NCI/ADR-RES ovarian; UO-31 renal; NCI-H522 lung; MALME-3M melanoma; HCC-2998 colon.
Holding throughout (assay): growth of human tumour cells (NCI), 48 h

Values joined by “and” are separate entries in the source; they are usually repeats but may differ in a detail not shown here. Equal values may be shown once.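 In this assay, cells in 96-well plates receive the compound at five concentrations for 48 hours. Endpoints are linearly interpolated between the surrounding concentrations. GI50 is the concentration that inhibits growth by half. TGI denotes the concentration required for complete inhibition of growth.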

For the compound `CCOC(=O)c1c(-c2ccccc2)[n+](=O)c2ccc(Cl)cc2n1[O-]`, the GI50 is 4.69 µM with K-562 leukemia; 12.7 µM with A498 renal; 10.2 µM in the assay with MDA-MB-435; 10.4 µM in the assay with SNB-19 CNS; 5.27 µM in the assay with NCI/ADR-RES ovarian; 1.92 µM in the assay on UO-31 renal. Besides, the GI50 with NCI-H522 lung is over 100 µM. For the same compound, the TGI was 18.5 µM in the assay on K-562 leukemia; 26.2 µM in the assay on A498 renal; 26.4 µM in the assay on MDA-MB-435; over 100 µM in the assay on SNB-19 CNS; 18.1 µM with NCI/ADR-RES ovarian; 3.69 µM in the assay with UO-31 renal. Also, the TGI in the assay on NCI-H522 lung was over 100 µM.

For the compound `CC(=O)OCc1cc(OC(C)=O)cnc1COC(C)=O`, the TGI with K-562 leukemia, in the assay on A498 renal, in the assay on SNB-19 CNS, in the assay on MALME-3M melanoma, with UO-31 renal and in the assay on NCI-H522 lung was over 100 µM each time.

In the case of `N/C(=N\N=C\c1cccs1)NO`, the TGI in the assay with K-562 leukemia, in the assay on A498 renal, in the assay with SNB-19 CNS, in the assay on HCC-2998 colon, in the assay with MALME-3M melanoma and with UO-31 renal was over 100 µM in each case. Further, the TGI in the assay on NCI-H522 lung was over 100 µM.

`COc1cc2ccc3c4c(OC)cc(OC)c(OC)c4c(=O)n(C)c3c2cc1OC`: the GI50 is 0.303 µM in the assay with K-562 leukemia, 13.4 µM in the assay on MALME-3M melanoma and 0.745 µM in the assay on NCI-H522 lung. Further, the TGI in the assay with A498 renal was 16.7 µM; with SNB-19 CNS, over 51.7 µM; in the assay with HCC-2998 colon, over 36.1 µM; in the assay on MALME-3M melanoma, 16.7 µM and > 49.6 µM; in the assay with UO-31 renal it was over 48.9 µM; in the assay with NCI-H522 lung, 10.9 µM and > 32.8 µM.

With `COc1cc(/C=C2\[C@H]3c4c(c(OC)c(C)c(OC)c4OC)C[C@@H](C(=O)N2Cc2ccccc2)N3C(=O)OC(C)C)c(OC)c(C)c1OC`, the TGI with K-562 leukemia, with A498 renal, with HCC-2998 colon, with MALME-3M melanoma, in the assay with UO-31 renal and in the assay with NCI-H522 lung was over 100 µM each time.

Take `Cc1ccc(S(=O)(=O)/N=c2\ssc(Nc3ccccc3)c2Cl)cc1`: the GI50 is 18.4 µM with K-562 leukemia; 8.41 µM with MDA-MB-435; 12.8 µM in the assay with SNB-19 CNS; 10.1 µM in the assay on NCI/ADR-RES ovarian; 21.3 µM with UO-31 renal; 19.8 µM with NCI-H522 lung. Moreover, the TGI with K-562 leukemia is over 50 µM; in the assay on MDA-MB-435, 22.1 µM; in the assay with SNB-19 CNS, over 50 µM; in the assay on NCI/ADR-RES ovarian, 27.6 µM; in the assay on UO-31 renal, over 50 µM; in the assay with NCI-H522 lung, over 50 µM.

Regarding `Cc1c(C(=O)CC(=O)C(=O)Nc2ccc(Cl)c(Cl)c2)[n+](=O)c2ccccc2n1[O-]`, the TGI is 57.2 µM with K-562 leukemia; over 100 µM in the assay with A498 renal; over 100 µM in the assay with SNB-19 CNS; 67.3 µM with HCC-2998 colon; 36.5 µM with MALME-3M melanoma; over 100 µM in the assay with UO-31 renal. Also, the TGI in the assay with NCI-H522 lung came out at 37 µM.

Turning to `C=C1C(=O)O[C@H]2[C@H]1CC/C(Cn1cc(Cn3ccc4ccccc43)nn1)=C\CC[C@@]1(C)O[C@@H]21`, the GI50 in the assay with K-562 leukemia was 1.77 µM; in the assay with A498 renal, 4.3 µM; in the assay on MDA-MB-435, 1.7 µM; with SNB-19 CNS it was 3.88 µM; with HCC-2998 colon, 1.93 µM; in the assay with MALME-3M melanoma, 1.59 µM. Moreover, the values for the GI50 in the assay on NCI/ADR-RES ovarian, in the assay on UO-31 renal and with NCI-H522 lung were 5.07 µM, 1.26 µM and 1.27 µM, respectively. The TGI stood at 5.65 µM in the assay on K-562 leukemia; 16.6 µM in the assay with A498 renal; 3.39 µM in the assay on MDA-MB-435; 15.7 µM in the assay with SNB-19 CNS; 3.66 µM in the assay with HCC-2998 colon; 3.34 µM in the assay with MALME-3M melanoma. Moreover, the TGI turned out to be 21.6 µM in the assay on NCI/ADR-RES ovarian, 2.53 µM in the assay with UO-31 renal and 2.69 µM in the assay with NCI-H522 lung.

As to `COc1ccc(N(CC(=O)NCCC[Te]c2ccccc2)C(=O)CCSC2=C(C)C(=O)c3ccccc3C2=O)cc1`, the GI50 with K-562 leukemia is 2.48 µM; in the assay on A498 renal, 1.96 µM; with MDA-MB-435, 2.67 µM; in the assay with SNB-19 CNS it was 2.91 µM; with HCC-2998 colon, 1.67 µM; with MALME-3M melanoma, 2.25 µM. Moreover, the GI50 in the assay with NCI/ADR-RES ovarian was 1.46 µM; with UO-31 renal it was 0.437 µM; with NCI-H522 lung, 0.948 µM. Further, the TGI is over 22.7 µM in the assay with K-562 leukemia; 4.61 µM with A498 renal; 8.11 µM with MDA-MB-435; 12.1 µM with SNB-19 CNS; 4.44 µM in the assay with HCC-2998 colon; 4.51 µM in the assay on MALME-3M melanoma. For the same compound, the TGI in the assay on NCI/ADR-RES ovarian came out at 6.16 µM; with UO-31 renal, 2.45 µM; in the assay with NCI-H522 lung, 3.59 µM.

As for `C#CCOCn1cnc2c(=S)nc[nH]c21`, the TGI with K-562 leukemia, with A498 renal, in the assay with SNB-19 CNS, with HCC-2998 colon, in the assay on MALME-3M melanoma and with UO-31 renal was over 100 µM throughout. Besides, the TGI in the assay with NCI-H522 lung was over 100 µM.

With `CC(=O)NC(CCCCNC(=O)N(CCCl)N=O)C(=O)NCc1ccccc1` (stereo not given), the TGI in the assay with K-562 leukemia, with SNB-19 CNS, in the assay on HCC-2998 colon, in the assay on MALME-3M melanoma, in the assay with UO-31 renal and in the assay on NCI-H522 lung was over 100 µM each time.

Regarding `CCC1=C(C)/C(=C/c2[nH]c(CBr)c(CC)c2C)N=C1CBr`, the TGI in the assay on K-562 leukemia is over 100 µM; in the assay on SNB-19 CNS, 33.9 µM; in the assay with HCC-2998 colon, 26.3 µM; in the assay on MALME-3M melanoma, 41 µM; in the assay on UO-31 renal, 15.8 µM; in the assay with NCI-H522 lung, 9.67 µM.

As for `COc1ccc(C(c2ccc(C(C)C)cc(=O)c2O)c2ccc3cccnc3c2O)cc1` (stereo not given), the TGI is over 100 µM in the assay on K-562 leukemia, 17.5 µM with MALME-3M melanoma, 1.78 µM with UO-31 renal and 10.9 µM in the assay on NCI-H522 lung.
